Results as given in patent EP1862466A2, “Arrays with cleavable linkers” (THE SCRIPPS RESEARCH INSTITUTE, priority 2004, dated 2006).

Tests used:
β3GlcNAcT = β3GlcNAcT acceptor specificity (relative enzyme activity); assay type: biochemical, N. meningitidis; settings: substance used as acceptor substrate; Galβ(1-4)Glc = 100
Text: The inventors have previously cloned and characterized the bacterial N. meningitidis enzymes β4GalT-GalE and β3GlcNAcT. Blixt, O.;Brown, J.;Schur, M.;Wakarchuk, W. and Paulson, J. C., J. Org. Chem. 2001, 66, 2442-2448; Blixt, O.;van Die, I.;Norberg, T. and van den Eijnden, D. H., Glycobiol. 1999, 9, 1061-1071. β4GalT-GalE is a fusion protein constructed from β4GalT and the uridine-5'-diphospho-galactose-4'-epimerase (GalE) for in situ conversion of inexpensive UDP-glucose to UDP-galactose providing a cost efficient strategy.
Both enzymes, β4GalT-GalE and β3GlcNAcT, were over expressed in E. coli AD202 in a large-scale fermentor (100 L). Bacteria were cultured in 2YT medium and induced with iso-propyl-thiogalactopyranoside (IPTG) to ultimately produce 8-10 g of bacterial cell paste / L cell media. The enzymes were then released from the cells by a microfluidizer and were solubilized in Tris buffer (25 mM, pH 7.5) containing manganese chloride (10 mM) and Triton X (0.25%) to reach enzymatic activities of about 50 U/L and 115 U/L of cell culture β4GalT-GalE and β3GlcNAcT, respectively.
The structures of these disaccharides are provided below. [drawing 23] [drawing 24] [drawing 25] [drawing 26]
Adding the hydrophobic para-nitrophenyl ring as an aglycon to the reducing end of the acceptors enhanced the activity of the enzyme up to 10 fold (compare 4 with 5 and 6 with 7). The increase in the enzyme activity by adding a hydrophobic aglycon to the acceptor sugar, though to the lesser extent, has also been shown for β4GalT (compare 12 with 13,14). The relaxed substrate specificity of these enzymes makes them very useful for preparative synthesis of various carbohydrate structures, including poly-N-acetyllactosamines. Table 4. Selected β4GalT-GalE and β3GlcNAcT Specificity Data

2G12 antibody [1] = experiment: Carbohydrate microarray analysis, microtiter-based, Scatchard plot (Kd); assay type: binding, human; settings: for Kd: oligomannose immobilized as azide derivative on cleavable linker in microtiter plate, fluorescent secondary antibody
Method: Carbohydrate microarray analysis. Ninety-six well NHS-coated microtiter plates (NoAb Biodiscoveries) were treated with 200 µL of a 1 mM methanolic solution of the amino-functionalized disulfide and alkyne containing linker (scheme V) containing 5 % diisopropylethylamine (DIEA) and incubated overnight at 4°C. The microtiter plate was then washed with 2 x 200 µL methanol and 2 x 200 µL water. Next, 200 µL solutions of azido-functionalized oligomannose derivatives 21-25 at varying concentrations from 0 to 500 µM in 5 % DIEA / methanol were introduced. A sprinkle of copper (I) iodide was added and the contents were allowed to react overnight at 4°C. The next day, the contents were removed and the plates were washed with 2 x 200 µL methanol and 2 x 200 µL water. The plates were then blocked with 0.1 % Tween20 solution in HEPES buffer pH 7.5 at 4 °C for 1 hour and then washed with 3 x 200 µL HEPES buffer. Next, 200 µL of a 1 µg/mL solution of 2G12 antibody in 0.1 % Tween20 / PBS buffer was added to the wells for a 1 hour incubation at 4 °C and then washed with 2 x 200 µL PBS buffer. At this point, 200 µL of FITC-tagged goat anti-human IgG antibody (10 µg/mL in PBS, Cal Biochem) was added for 1 hour at 4 °C, and the wells were then washed with 2 x 200 µL PBS buffer. Detection of the FITC-tagged secondary antibody was performed in 200 µL water using a fluorescence plate reader. The resulting data yielded the oligomannose-2G12 binding isotherms and Scatchard plot analysis was implemented in the determination of dissociation constants. Adams et al. (2004) Chem. Biol. 11: 875-81.
Overall, many of the oligomannose derivatives can compete for binding of Man9GlcNAc2, and, therefore, may serve as building blocks for potential immunogens to elicit 2G12-like antibodies. Carbohydrate Microarray Analysis. Previous studies by the inventors using covalent microtiter plates with a panel of carbohydrate epitopes for interaction with 2G12 involved converting the amine-containing oligomannoses 4, 5, 7, 8 and 9 to the corresponding azide derivatives 21, 22, 23, 24 and 25. These derivatives were then covalently attached to a microplate-immobilized cleavable linker via the Cu (I)-catalyzed 1,3-dipolar cycloaddition reaction (FIG. 11B). Kd values for the interaction of 2G12 with oligomannoses 4, 5, 7, 8, 9 (Table 9) were determined using a microtiter-based assay with detection via a fluorescent secondary antibody (see Bryan et al.(2004) J. Am. Chem. Soc. 126, 8640-41). Table 9: The Kd values of oligomannoses 1 and 4, 5, 7, 8, 9 binding to 2G12, as determined by carbohydrate microarray analysis.

2G12 anti-HIV antibody = experiment: 2G12 binding to glycan array printed on glass slide; design: species or system human; settings: for Rel. spec. (relative binding activity of 2G12): glass-slide glycan array, 2G12 pre-complexed with secondary anti-IgG-FITC; for binding of 2G12 antibodies (in words): glycan array, initial experiments
Method: Construction of a glycan array printed on a glass slide: The library of carbohydrate structures was obtained through chemical and chemo-enzymatic synthesis as described above, as well as natural sources. This compound library contained a N-hydroxy succinimide (NHS)-reactive primary amino group, which was printed on a commercial NHS-activated glass surface (Accelr8 Technology Corporation, Denver, CO) using a microarray gene printer (TSRI).
Each glycan type was printed (≈0.5nL/spot) at various concentrations (10-100 µM) and each concentration in a replicate of six. Slides were further incubated with ethanolamine buffer to deactivate remaining NHS functional groups.
The 2G12 antibody was pre-complexed (for 10 min) with secondary human anti-IgG-FITC (2:1, 20µg/mL) prior to application to the glycan array. After incubation with the 2G12 antibodies, the array was washed by dipping the slide in buffer and water.

2G12 antibody [2] = experiment: 2G12 binding study on cleavable linker glycan array in microtiter plates (Kd); design: species or system human; settings: binding to 2G12 antibody
Method: Cleavable Linker Glycan Array in Microtiter Plates: Further experiments were performed using glycans immobilized within microtiter wells with the cleavable triazole linkers described in Example 7 as shown in FIG. 11.
2G12 Binding: After washing with QH2O, wells were blocked with 10 mM HEPES buffer, pH 7.5/150 mM NaCl buffer (200 µL) containing 0.1% Tween-20 over 1 h at 4 °C. The buffer was then removed and 2G12 (17 µg/mL PBS buffer; 200 µL) was incubated in the well over 1 h at 4°C. Wells were then washed with PBS buffer (3×; 200 µL) and fluorescein-conjugated Goat Anti-Human IgG antibody (14 µg/mL PBS buffer; 200 µL) was incubated in the well over 1 h in the dark at 4 °C. Wells were then washed with PBS buffer (3×; 200 µL) and fluorescence was measured with an excitation wavelength of 485 nm and emission wavelength of 535 nm.
Further studies were performed using a cleavable linker array to clarify the types of mannose-containing glycans bound by the 2G12 anti-HIV antibodies. […] The results of a binding study using increasing amounts of labeled Manα1,2Manα1,3Manα1,2 Manα1,6Man glycan with a constant amount of 2G12 antibody are shown in FIG. 16.

OC[C@H]1O[C@@H](O[C@H]2[C@H](O)[C@@H](O)[C@H](O)O[C@@H]2CO)[C@H](O)[C@@H](O)[C@H]1O [Acceptor 4, Galβ(1-4)Glc, reference compound]
Relative enzyme activity (%) β(1-3)GlcNAcT-activity (β3GlcNAcT): 100%

OCC1O[C@@H](O)C(O)[C@@H](O)[C@@H]1O[C@@H]1OC(CO)[C@H](O)[C@H](O)C1O (stereo partly shown) [Compound 4]
Relative enzyme activity (%) β(1-3)GlcNAcT-activity (β3GlcNAcT): 100% | Kd (2G12 antibody [1]): 100 nM

O=[N+]([O-])c1ccc(O[C@@H]2OC(CO)[C@@H](O[C@@H]3OC(CO)[C@H](O)[C@H](O)C3O)[C@H](O)C2O)cc1 (stereo partly shown) [Compound 5]
Relative enzyme activity (%) β(1-3)GlcNAcT-activity (β3GlcNAcT): 945% | Kd (2G12 antibody [1]): 100 nM

CC(=O)N[C@H]1C(O)O[C@H](CO)[C@@H](O[C@@H]2O[C@H](CO)[C@H](O)[C@H](O)[C@H]2O)[C@@H]1O (stereo partly shown) [Compound 6]
Relative enzyme activity (%) β(1-3)GlcNAcT-activity (β3GlcNAcT): 7%

NCCCO[C@H]1O[C@H](CO)[C@@H](O)[C@H](O[C@H]2O[C@H](CO)[C@@H](O)[C@H](O)[C@@H]2O[C@H]2O[C@H](CO)[C@@H](O)[C@H](O)[C@@H]2O[C@H]2O[C@H](CO)[C@@H](O)[C@H](O)[C@@H]2O)[C@@H]1O [Glycan 135]
Rel. spec. (relative binding activity of 2G12) (2G12 anti-HIV antibody): +++ (+++ >25,000)

NCCCO[C@H]1O[C@H](CO[C@H]2O[C@H](CO)[C@@H](O)[C@H](O)[C@@H]2O[C@H]2O[C@H](CO)[C@@H](O)[C@H](O)[C@@H]2O)[C@@H](O)[C@H](O[C@H]2O[C@H](CO)[C@@H](O)[C@H](O)[C@@H]2O[C@H]2O[C@H](CO)[C@@H](O)[C@H](O)[C@@H]2O)[C@@H]1O [Glycan 136]
Rel. spec. (relative binding activity of 2G12) (2G12 anti-HIV antibody): +++ (+++ >25,000)

NCCCO[C@H]1O[C@H](CO[C@H]2O[C@H](CO)[C@@H](O)[C@H](O)[C@@H]2O[C@H]2O[C@H](CO)[C@@H](O)[C@H](O)[C@@H]2O[C@H]2O[C@H](CO)[C@@H](O)[C@H](O)[C@@H]2O)[C@@H](O)[C@H](O[C@H]2O[C@H](CO)[C@@H](O)[C@H](O)[C@@H]2O)[C@@H]1O [Glycan 138]
Rel. spec. (relative binding activity of 2G12) (2G12 anti-HIV antibody): +++ (+++ >25,000)

NCCCCCO[C@H]1O[C@H](CO)[C@@H](O)[C@H](O[C@H]2O[C@H](CO)[C@@H](O)[C@H](O)[C@@H]2O[C@H]2O[C@H](CO)[C@@H](O)[C@H](O)[C@@H]2O[C@H]2O[C@H](CO)[C@@H](O)[C@H](O)[C@@H]2O)[C@@H]1O [Oligomannose 4]
affinity for 2G12 antibodies (in words) (2G12 antibody [1]; microtiter plate array): greatest affinity

Galβ(1-4)GlcNAc [Acceptor 6, reference compound]
Relative enzyme activity (%) β(1-3)GlcNAcT-activity (β3GlcNAcT): 7-8%

Man-8#aa Man8-aminoacid [Glycan 144]
binding of 2G12 antibodies (in words) (2G12 anti-HIV antibody): Binding was observed

Man-9#aa Man9-aminoacid [Glycan 145]
binding of 2G12 antibodies (in words) (2G12 anti-HIV antibody): smaller level of binding

Manα1,2Manα1,2Manα1,3(Manα1,2Man1,2Man1.6)Man
Kd (2G12 antibody [2]): 700 nM

Manα1,2Manα1,3Manα1,2 Manα1,6Man
Kd (2G12 antibody [2]): 100 nM

Manα 1,2Manα1 ,2Manα1 1,3(Manα1,2Man1,3 (Manα1.2Manα1 ,2Manα 1.6) )Man
Kd (2G12 antibody [2]): 1000 nM
